# Experimental data published in patent publication US12459951B2, “Compounds that interact with RAS superfamily proteins for treatment of cancers, inflammatory diseases, rasopathies, and fibrotic disease” (SHY Therapeutics, LLC, priority 2022, dated 2025).
# What was measured:
# [1] = system: TNF-alpha; assay: TNF-alpha Quantification Assay (ELISA), LPS-stimulated RAW 264.7; type: cell-based; set-up: inhibition: dose or concentration left out as unconfirmed; conditions: Mus musculus, RAW264.7, read-out: TNFα: % inh.
# [2] = target: T1, Rac-1 (Homo sapiens, UniProt P63000); assay: Ras GTP Binding Domain Inhibition Assay (Ras Superfamily Assay); conditions: read-out: Rac-1: % inh.
# T1 construct: made in house
# Method in brief: (§1)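 Ni-plate capture of His-tagged protein (10-30 μg/mL, o/n 4° C); cpd 20 μM or dilution series, 1% DMSO, 3 h RT ± Sos 556-1049 last h; 100 nM Cy-labelled GTP 45 min RT; 3× wash; fluorescence read.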
# [3] = system: KRas G12D mutant; assay: as above; conditions: at 20 μM; for KRas G12D mutant + SOS: % inh.: with SOS; for KRas G12D mutant: % inh.: without SOS
# Method in brief: as §1
# [4] = system: KRas wild type; assay: as above; conditions: at 20 μM; for KRas wild type + SOS: % inh.: with SOS; for KRas wild type: % inh.: without SOS
# Method in brief: as §1
# [5] = system: Erk1/2 phosphorylation; assay: Erk1/2 Phosphorylation Assay (western blot), Panc-1; type: cell-based, human; conditions: at 10 μM, * = activation
# Method in brief: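 KRas G12D Panc-1 cells were treated 6 h at 37° C with compound at 10 μM or serial dilutions for IC50 (0.3% DMSO). In method 1, cells were serum-starved overnight (0.5% FBS) and then given 1.5 ng/ml EGF for 15 min. In method 2, cells stayed in 10% FBS without stimulation. Lysate phospho-Erk1/2 (Thr202/Tyr204) was read by western blot.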
Compound,inhibition at 20 µM [2] [%],KRas G12D mutant + SOS: % inh. [3],KRas G12D mutant: % inh. [3],KRas wild type + SOS: % inh. [4],KRas wild type: % inh. [4],inhibition at 10 µM [1] [%],% inh of Erk1/2 phosphorylation in Panc-1 [5],inhibition [1] [%]
"COc1cccc(-c2cn3nc(-c4nccn4C)nc(N[C@@H]4CC[C@H]4OC)c3c2-c2ccccc2)c1C (racemic) [Compound 272, rac 6-(3-Methoxy-2-methylphenyl)-N-((1R,2R)-2-methoxycyclobutyl)-2-(1-methyl-1H-imidazol-2-yl)-5-phenylpyrrolo[2,1-f][1,2,4]triazin-4-amine]",1 to 25,A (A = 1-25% inhibition),C (C = 50-75% inhibition),0 (0 = 0% inhibition),0 (0 = 0% inhibition),75 to 100,D (85-100% inhibition),–
"COc1cc(Nc2nc(-c3nccn3C)nn3cc(-c4ccn(C)n4)c(C)c23)ncc1-n1cnc(C)c1 [Compound 244, N-(4-Methoxy-5-(4-methyl-1H-imidazol-1-yl)pyridin-2-yl)-5-methyl-2-(1-methyl-1H-imidazol-2-yl)-6-(1-methyl-1H-pyrazol-3-yl)pyrrolo[2,1-f][1,2,4]triazin-4-amine]",76 to 100,D (D = 76-100% inhibition),D (D = 76-100% inhibition),D (D = 76-100% inhibition),C (C = 50-75% inhibition),0,0 (0% inhibition),–
"Cc1c(-c2ccn(C)n2)cn2nc(-c3nccn3C)nc(Nc3ccc(N4CCOCC4)cn3)c12 [Compound 247, 5-Methyl-2-(1-methyl-1H-imidazol-2-yl)-6-(1-methyl-1H-pyrazol-3-yl)-N-(5-morpholinopyridin-2-yl)pyrrolo[2,1-f][1,2,4]triazin-4-amine]",76 to 100,D (D = 76-100% inhibition),D (D = 76-100% inhibition),D (D = 76-100% inhibition),D (D = 76-100% inhibition),50 to 74,D* (85-100% activation),–
"Cc1c(-c2ccn(C)n2)cn2nc(-c3nccn3C)nc(N3CCc4cc(C(F)(F)F)cnc43)c12 [Compound 251, 5-Methyl-2-(1-methyl-1H-imidazol-2-yl)-6-(1-methyl-1H-pyrazol-3-yl)-4-(5-(trifluoromethyl)-2,3-dihydro-1H-pyrrolo[2,3-b]pyridin-1-yl)pyrrolo[2,1-f][1,2,4]triazine]",26 to 49,B (B = 26-49% inhibition),C (C = 50-75% inhibition),A (A = 1-25% inhibition),B (B = 26-49% inhibition),–,B (26-49% inhibition),–
"COc1cc(Nc2nc(-c3nccn3C)nn3cc(-c4ccn(C)n4)c(C)c23)n[nH]1 [Compound 252, N-(5-Methoxy-1H-pyrazol-3-yl)-5-methyl-2-(1-methyl-1H-imidazol-2-yl)-6-(1-methyl-1H-pyrazol-3-yl)pyrrolo[2,1-f][1,2,4]triazin-4-amine]",76 to 100,D (D = 76-100% inhibition),D (D = 76-100% inhibition),D (D = 76-100% inhibition),C (C = 50-75% inhibition),0,A* (1-25% activation),–
"COc1cc(Nc2nc(-c3nccn3C)nn3cc(-c4ccn(C)n4)c(C)c23)nn1C [Compound 253, N-(5-Methoxy-1-methyl-1H-pyrazol-3-yl)-5-methyl-2-(1-methyl-1H-imidazol-2-yl)-6-(1-methyl-1H-pyrazol-3-yl)pyrrolo[2,1-f][1,2,4]triazin-4-amine]",76 to 100,D (D = 76-100% inhibition),C (C = 50-75% inhibition),D (D = 76-100% inhibition),D (D = 76-100% inhibition),0,C* (46-84% activation),–
"Cc1c(-c2ccn(C)n2)cn2nc(-c3nccn3C)nc(Nc3cc(OC(F)F)n(C)n3)c12 [Compound 254, N-(5-(Difluoromethoxy)-1-methyl-1H-pyrazol-3-yl)-5-methyl-2-(1-methyl-1H-imidazol-2-yl)-6-(1-methyl-1H-pyrazol-3-yl)pyrrolo[2,1-f][1,2,4]triazin-4-amine]",76 to 100,D (D = 76-100% inhibition),D (D = 76-100% inhibition),D (D = 76-100% inhibition),D (D = 76-100% inhibition),0,D* (85-100% activation),–
"Cc1cc(Nc2nc(-c3nccn3C)nn3cc(-c4ccn(C)n4)c(C)c23)n[nH]1 [Compound 255, 5-Methyl-2-(1-methyl-1H-imidazol-2-yl)-6-(1-methyl-1H-pyrazol-3-yl)-N-(5-methyl-1H-pyrazol-3-yl)pyrrolo[2,1-f][1,2,4]triazin-4-amine]",76 to 100,D (D = 76-100% inhibition),D (D = 76-100% inhibition),D (D = 76-100% inhibition),–,1 to 24,A (1-25% inhibition),–
"Cc1c(-c2ccn(C)n2)cn2nc(-c3nccn3C)nc(Nc3cc[nH]n3)c12 [Compound 256, 5-Methyl-2-(1-methyl-1H-imidazol-2-yl)-6-(1-methyl-1H-pyrazol-3-yl)-N-(1H-pyrazol-3-yl)pyrrolo[2,1-f][1,2,4]triazin-4-amine]",76 to 100,D (D = 76-100% inhibition),D (D = 76-100% inhibition),D (D = 76-100% inhibition),A (A = 1-25% inhibition),0,C (50-84% inhibition),–

# Further lines, with some results ahead:
inhibition at 20 µM [2] [%],KRas G12D mutant + SOS: % inh. [3],KRas G12D mutant: % inh. [3],KRas wild type + SOS: % inh. [4],KRas wild type: % inh. [4],Compound,inhibition at 10 µM [1] [%],% inh of Erk1/2 phosphorylation in Panc-1 [5],inhibition [1] [%]
50 to 75,C (C = 50-75% inhibition),C (C = 50-75% inhibition),B (B = 26-49% inhibition),A (A = 1-25% inhibition),"Cc1c(-c2ccn(C)n2)cn2nc(-c3nccn3C)nc(Nc3cc(-n4ccnc4)ccn3)c12 [Compound 245, N-(4-(1H-imidazol-1-yl)pyridin-2-yl)-5-methyl-2-(1-methyl-1H-imidazol-2-yl)-6-(1-methyl-1H-pyrazol-3-yl)pyrrolo[2,1-f][1,2,4]triazin-4-amine]",0,0 (0% inhibition),–
76 to 100,D (D = 76-100% inhibition),D (D = 76-100% inhibition),D (D = 76-100% inhibition),D (D = 76-100% inhibition),"Cc1c(-c2ccn(C)n2)cn2nc(-c3nccn3C)nc(Nc3cc(-n4ccnc4C)ccn3)c12 [Compound 246, 5-Methyl-N-(4-(2-methyl-1H-imidazol-1-yl)pyridin-2-yl)-2-(1-methyl-1H-imidazol-2-yl)-6-(1-methyl-1H-pyrazol-3-yl)pyrrolo[2,1-f][1,2,4]triazin-4-amine]",0,0 (0% inhibition),–
76 to 100,D (D = 76-100% inhibition),D (D = 76-100% inhibition),D (D = 76-100% inhibition),D (D = 76-100% inhibition),"Cc1c(-c2ccn(C)n2)cn2nc(-c3nccn3C)nc(Nc3cc(-c4ccccn4)ccn3)c12 [Compound 248, N-([2,4′-Bipyridin]-2′-yl)-5-methyl-2-(1-methyl-1H-imidazol-2-yl)-6-(1-methyl-1H-pyrazol-3-yl)pyrrolo[2,1-f][1,2,4]triazin-4-amine]",–,C* (46-84% activation),25 to 49
76 to 100,C (C = 50-75% inhibition),C (C = 50-75% inhibition),C (C = 50-75% inhibition),C (C = 50-75% inhibition),"Cc1c(-c2ccn(C)n2)cn2nc(-c3nccn3C)nc(Nc3ccc(-c4ccccn4)cn3)c12 [Compound 249, N-([2,3′-Bipyridin]-6′-yl)-5-methyl-2-(1-methyl-1H-imidazol-2-yl)-6-(1-methyl-1H-pyrazol-3-yl)pyrrolo[2,1-f][1,2,4]triazin-4-amine]",1 to 24,D* (85-100% activation),–
76 to 100,D (D = 76-100% inhibition),D (D = 76-100% inhibition),D (D = 76-100% inhibition),D (D = 76-100% inhibition),"Cc1c(-c2ccn(C)n2)cn2nc(-c3nccn3C)nc(Nc3cc(-c4cccnc4)ccn3)c12 [Compound 250, N-([3,4′-Bipyridin]-2′-yl)-5-methyl-2-(1-methyl-1H-imidazol-2-yl)-6-(1-methyl-1H-pyrazol-3-yl)pyrrolo[2,1-f][1,2,4]triazin-4-amine]",50 to 74,C* (46-84% activation),–
